Patent US9932314B2, “Pyrazole compounds and their use as T-type calcium channel blockers” (IDORSIA PHARMACEUTICALS LTD, priority 2015, dated 2018)

Target: T1, voltage-dependent T-type calcium channel subunit alpha-1G (Cav3.2) (Homo sapiens, UniProt O95180)
T1 construct: expressed in transfected cells; host or cells: HEK293
Assay: FLIPR calcium flux assay, HEK293 cells recombinantly expressing Cav3.2
Format: cell-based
Conditions: Cav3.2-channel, Fluo-4-AM, 3 min incubation, stimulation with 10 mM CaCl2
How it was run: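 Calcium influx was triggered by adding CaCl2 to 10 mM final, 3 min after compounds in tetraethylammonium-based buffer, pH 7.2, reached Fluo-4-AM-loaded recombinant HEK293 cells. The integrated kinetic fluorescence signal per concentration gave concentration-response curves by non-linear sigmoidal regression.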

T1 sequence (O95180 whole entry): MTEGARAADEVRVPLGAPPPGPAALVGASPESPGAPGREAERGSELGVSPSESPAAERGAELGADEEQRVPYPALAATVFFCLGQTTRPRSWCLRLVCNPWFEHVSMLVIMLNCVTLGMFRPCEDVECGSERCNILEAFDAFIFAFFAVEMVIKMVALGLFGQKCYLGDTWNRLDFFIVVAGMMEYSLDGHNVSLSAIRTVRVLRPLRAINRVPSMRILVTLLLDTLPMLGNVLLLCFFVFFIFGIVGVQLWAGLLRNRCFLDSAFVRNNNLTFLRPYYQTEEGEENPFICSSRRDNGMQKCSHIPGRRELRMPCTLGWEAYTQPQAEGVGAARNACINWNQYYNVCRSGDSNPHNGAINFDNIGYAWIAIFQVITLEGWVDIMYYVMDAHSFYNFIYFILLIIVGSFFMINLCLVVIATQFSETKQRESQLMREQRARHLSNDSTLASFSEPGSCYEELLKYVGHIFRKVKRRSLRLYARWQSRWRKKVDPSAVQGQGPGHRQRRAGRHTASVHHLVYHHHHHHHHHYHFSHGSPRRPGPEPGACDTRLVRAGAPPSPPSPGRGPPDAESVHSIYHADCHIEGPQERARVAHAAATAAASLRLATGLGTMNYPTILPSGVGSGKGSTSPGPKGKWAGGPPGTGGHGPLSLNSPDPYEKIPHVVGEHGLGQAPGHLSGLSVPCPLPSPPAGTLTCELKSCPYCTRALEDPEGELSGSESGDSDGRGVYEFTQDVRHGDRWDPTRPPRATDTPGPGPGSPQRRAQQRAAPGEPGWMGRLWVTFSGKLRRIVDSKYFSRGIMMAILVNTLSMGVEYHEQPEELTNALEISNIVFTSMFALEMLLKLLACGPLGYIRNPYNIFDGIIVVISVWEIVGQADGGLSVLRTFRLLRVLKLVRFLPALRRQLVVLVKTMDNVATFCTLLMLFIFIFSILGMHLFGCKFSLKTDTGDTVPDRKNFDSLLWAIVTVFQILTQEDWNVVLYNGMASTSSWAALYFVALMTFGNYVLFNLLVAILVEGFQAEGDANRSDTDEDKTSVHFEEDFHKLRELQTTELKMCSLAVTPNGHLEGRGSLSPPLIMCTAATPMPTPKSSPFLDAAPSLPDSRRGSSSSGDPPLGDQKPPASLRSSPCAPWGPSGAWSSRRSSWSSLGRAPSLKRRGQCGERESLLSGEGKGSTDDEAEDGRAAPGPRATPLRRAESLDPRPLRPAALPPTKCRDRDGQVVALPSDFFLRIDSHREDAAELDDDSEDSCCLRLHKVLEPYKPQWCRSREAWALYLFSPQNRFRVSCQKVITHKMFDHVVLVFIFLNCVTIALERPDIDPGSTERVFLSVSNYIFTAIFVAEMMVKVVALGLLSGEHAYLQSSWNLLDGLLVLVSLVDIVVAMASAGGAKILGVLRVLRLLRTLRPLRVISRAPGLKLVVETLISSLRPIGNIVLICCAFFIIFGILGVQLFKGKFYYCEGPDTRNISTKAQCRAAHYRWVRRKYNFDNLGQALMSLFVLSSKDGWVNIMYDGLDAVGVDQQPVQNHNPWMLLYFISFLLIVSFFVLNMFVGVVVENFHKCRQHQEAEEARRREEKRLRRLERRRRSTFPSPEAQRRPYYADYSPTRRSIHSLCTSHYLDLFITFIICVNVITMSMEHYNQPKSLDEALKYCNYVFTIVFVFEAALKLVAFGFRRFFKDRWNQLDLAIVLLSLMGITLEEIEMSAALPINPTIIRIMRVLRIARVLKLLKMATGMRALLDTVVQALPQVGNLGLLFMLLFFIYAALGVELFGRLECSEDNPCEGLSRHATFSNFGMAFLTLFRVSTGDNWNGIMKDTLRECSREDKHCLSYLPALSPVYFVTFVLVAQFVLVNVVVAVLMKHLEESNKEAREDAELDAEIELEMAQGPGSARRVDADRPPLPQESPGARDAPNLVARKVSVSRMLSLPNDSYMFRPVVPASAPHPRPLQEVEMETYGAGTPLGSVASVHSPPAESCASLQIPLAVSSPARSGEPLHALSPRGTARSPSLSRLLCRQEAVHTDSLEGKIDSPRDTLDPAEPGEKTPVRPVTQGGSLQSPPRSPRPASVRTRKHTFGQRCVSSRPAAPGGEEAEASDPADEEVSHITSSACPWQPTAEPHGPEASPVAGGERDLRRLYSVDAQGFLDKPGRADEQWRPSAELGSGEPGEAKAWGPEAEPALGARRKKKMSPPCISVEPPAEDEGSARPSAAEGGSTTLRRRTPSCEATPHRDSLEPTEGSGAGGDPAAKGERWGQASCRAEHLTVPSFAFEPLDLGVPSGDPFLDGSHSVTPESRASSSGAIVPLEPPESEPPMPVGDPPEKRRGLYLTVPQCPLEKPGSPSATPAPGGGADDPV

Going from N#CC1(c2ccc(CC(=O)Nc3ccn(Cc4ccc(F)c(F)c4)n3)cc2C(F)(F)F)CC1 [Example 404, 2-[4-(1-Cyano-cyclopropyl)-3-trifluoromethyl-phenyl]-N-[1-(3,4-difluoro-benzyl)-1H-pyrazol-3-yl]-acetamide] to O=C(Cc1ccc2c(c1)OCC(=O)N2)Nc1ccn(Cc2ccc(F)c(F)c2)n1 [Example 208, N-[1-(3,4-Difluoro-benzyl)-1H-pyrazol-3-yl]-2-(3-oxo-3,4-dihydro-2H-benzo[1,4]oxazin-7-yl)-acetamide], the IC50 rises from 14 nM to 88 nM (6.3-fold). The first is the more potent here.

Compared with COc1ccc(Cn2ccc(NC(=O)Cc3ccc(C(C)C)cc3)n2)cc1 [Example 7, 2-(4-Isopropyl-phenyl)-N-[1-(4-methoxy-benzyl)-1H-pyrazol-3-yl]-acetamide], COC(C)c1ccc(CC(=O)Nc2ccn(Cc3ccc(F)cc3)n2)cc1 (racemic) [Example 201, rac-N-[1-(4-Fluoro-benzyl)-1H-pyrazol-3-yl]-2-[4-(1-methoxy-ethyl)-phenyl]-acetamide] is 3.8-fold higher in IC50: 7.9 nM for the first, 30 nM for the second. The first is the more potent here.

N#Cc1ccc(Cn2ccc(NC(=O)Cc3ccc(OCC4COC4)cc3)n2)cc1F [Example 262, N-[1-(4-Cyano-3-fluoro-benzyl)-1H-pyrazol-3-yl]-2-[4-(oxetan-3-ylmethoxy)-phenyl]-acetamide] and N#Cc1cc(Cn2ccc(NC(=O)Cc3ccc(OC4COC4)cc3)n2)ccc1F [Example 269, N-[1-(3-Cyano-4-fluoro-benzyl)-1H-pyrazol-3-yl]-2-[4-(oxetan-3-yloxy)-phenyl]-acetamide] are within 1.5-fold of each other in IC50: 155 nM for the first, 162 nM for the second.

Going from Cn1ccc2ccc(CC(=O)Nc3ccn(Cc4ccc(C#N)cc4)n3)cc21 [Example 297, N-[1-(4-Cyano-benzyl)-1H-pyrazol-3-yl]-2-(1-methyl-1H-indol-6-yl)-acetamide] to Cn1ccc2cc(CC(=O)Nc3ccn(Cc4ccc(C#N)cc4)n3)cnc21 [Example 214, N-[1-(4-Cyano-benzyl)-1H-pyrazol-3-yl]-2-(1-methyl-1H-pyrrolo[2,3-b]pyridin-5-yl)-acetamide], the IC50 rises from 20 nM to 164 nM (8.2-fold). The first is the more potent here.

Compared with N#Cc1ccc(Cn2ccc(NC(=O)Cc3ccc(C4CC4)nc3)n2)cc1F [Example 216, N-[1-(4-Cyano-3-fluoro-benzyl)-1H-pyrazol-3-yl]-2-(6-cyclopropyl-pyridin-3-yl)-acetamide], CC(C)c1ccc(CC(=O)Nc2ccn(Cc3ccc(C#N)c(F)c3)n2)cc1 [Example 266, N-[1-(4-Cyano-3-fluoro-benzyl)-1H-pyrazol-3-yl]-2-(4-isopropyl-phenyl)-acetamide] is 41-fold lower in IC50: 269 nM for the first, 6.6 nM for the second.

Compared with N#Cc1cc(Cn2ccc(NC(=O)Cc3ccc(N4CCCC4)nc3)n2)ccc1F [Example 307, N-[1-(3-Cyano-4-fluoro-benzyl)-1H-pyrazol-3-yl]-2-(6-pyrrolidin-1-yl-pyridin-3-yl)-acetamide], N#Cc1cc(Cn2ccc(NC(=O)Cc3cnc(N4CCCC4)c(F)c3)n2)ccc1F [Example 340, N-[1-(3-Cyano-4-fluoro-benzyl)-1H-pyrazol-3-yl]-2-(5-fluoro-6-pyrrolidin-1-yl-pyridin-3-yl)-acetamide] is 4.9-fold lower in IC50: 42 nM for the first, 8.5 nM for the second. The second is the more potent here.

CN(c1ccc(CC(=O)Nc2ccn(Cc3ccc(F)cc3)n2)cn1)C1CC1 [Example 167, 2-[6-(Cyclopropyl(methyl)amino)-pyridin-3-yl]-N-[1-(4-fluoro-benzyl)-1H-pyrazol-3-yl]-acetamide] and CCN(CC)c1ccc(CC(=O)Nc2ccn(Cc3ccc(F)cc3)n2)cn1 [Example 190, 2-(6-Diethylamino-pyridin-3-yl)-N-[1-(4-fluoro-benzyl)-1H-pyrazol-3-yl]-acetamide] are the same in IC50: 21 nM for the first, 21 nM for the second.

Going from Cn1ccc2cc(CC(=O)Nc3ccn(Cc4ccc(F)c(C#N)c4)n3)ccc21 [Example 310, N-[1-(3-Cyano-4-fluoro-benzyl)-1H-pyrazol-3-yl]-2-(1-methyl-1H-indol-5-yl)-acetamide] to Cn1cc(C2CCC2)c2cc(CC(=O)Nc3ccn(Cc4ccc(F)c(C#N)c4)n3)ccc21 [Example 327, N-[1-(3-Cyano-4-fluoro-benzyl)-1H-pyrazol-3-yl]-2-(3-cyclobutyl-1-methyl-1H-indol-5-yl)-acetamide], the IC50 rises from 13 nM to 37 nM (2.8-fold).

First: CC(C)(C#N)c1ccc(CC(=O)Nc2ccn(Cc3ccc(C#N)cn3)n2)cc1 [Example 337, 2-[4-(Cyano-dimethyl-methyl)-phenyl]-N-[1-(5-cyano-pyridin-2-ylmethyl)-1H-pyrazol-3-yl]-acetamide]
Second: CN(C)c1ccc(CC(=O)Nc2ccn(Cc3ccc(C#N)cn3)n2)cc1 [Example 33, N-[1-(5-Cyano-pyridin-2-ylmethyl)-1H-pyrazol-3-yl]-2-(4-dimethylamino-phenyl)-acetamide]
The IC50 of the first is 1.7-fold higher: 168 nM for the first, 101 nM for the second.

O=C(Cc1ccc(N2CC[C@@H](F)C2)cc1)Nc1ccn(Cc2ccc(F)cc2)n1 [Example 70, N-[1-(4-Fluoro-benzyl)-1H-pyrazol-3-yl]-2-[4-((R)-3-fluoro-pyrrolidin-1-yl)-phenyl]-acetamide] and O=C(Cc1ccc(OC2CCC2)cc1)Nc1ccn(Cc2ccc(F)cc2)n1 [Example 198, 2-(4-Cyclobutoxy-phenyl)-N-[1-(4-fluoro-benzyl)-1H-pyrazol-3-yl]-acetamide] are within 1.5-fold of each other in IC50: 11 nM for the first, 16 nM for the second.

Compared with CC(C)c1cn(C)c2ccc(CC(=O)Nc3ccn(Cc4ccc(C#N)cn4)n3)cc12 [Example 324, N-[1-(5-Cyano-pyridin-2-ylmethyl)-1H-pyrazol-3-yl]-2-(3-isopropyl-1-methyl-1H-indol-5-yl)-acetamide], N#Cc1ccc(Cn2ccc(NC(=O)Cc3ccc(N4CC[C@H](F)C4)nc3)n2)nc1 [Example 152, N-[1-(5-Cyano-pyridin-2-ylmethyl)-1H-pyrazol-3-yl]-2-[6-((S)-3-fluoro-pyrrolidin-1-yl)-pyridin-3-yl]-acetamide] is 37-fold higher in IC50: 31 nM for the first, 1160 nM for the second.

Going from CCc1cc(CC(=O)Nc2ccn(Cc3ccc(F)c(C#N)n3)n2)ccc1OCC(F)(F)F [Example 412, N-[1-(6-Cyano-5-fluoro-pyridin-2-ylmethyl)-1H-pyrazol-3-yl]-2-[3-ethyl-4-(2,2,2-trifluoro-ethoxy)-phenyl]-acetamide] to N#Cc1nc(Cn2ccc(NC(=O)Cc3ccc(C4(C(F)(F)F)CC4)cc3)n2)ccc1F [Example 365, N-[1-(6-Cyano-5-fluoro-pyridin-2-ylmethyl)-1H-pyrazol-3-yl]-2-[4-(1-trifluoromethyl-cyclopropyl)-phenyl]-acetamide], the IC50 rises from 5.3 nM to 18 nM (3.4-fold).

CN(C)c1ccc(CC(=O)Nc2ccn(Cc3ccc(F)c(Cl)c3)n2)cn1 [Example 40, N-[1-(3-Chloro-4-fluoro-benzyl)-1H-pyrazol-3-yl]-2-(6-dimethylamino-pyridin-3-yl)-acetamide] and CCN(C)c1ccc(CC(=O)Nc2ccn(Cc3ccc(F)c(F)c3)n2)cn1 [Example 172, N-[1-(3,4-Difluoro-benzyl)-1H-pyrazol-3-yl]-2-[6-(ethyl-methyl-amino)-pyridin-3-yl]-acetamide] are within 1.5-fold of each other in IC50: 16 nM for the first, 15 nM for the second.

First: Cc1nc(-c2ccc(CC(=O)Nc3ccn(Cc4ccc(F)c(F)c4)n3)cc2)no1 [Example 235, N-[1-(3,4-Difluoro-benzyl)-1H-pyrazol-3-yl]-2-[4-(5-methyl-[1,2,4]oxadiazol-3-yl)-phenyl]-acetamide]
Second: COC(C)c1ccc(CC(=O)Nc2ccn(Cc3ccc(F)c(F)c3)n2)cc1 (racemic) [Example 202, rac-N-[1-(3,4-Difluoro-benzyl)-1H-pyrazol-3-yl]-2-[4-(1-methoxy-ethyl)-phenyl]-acetamide]
The IC50 of the first is 2.6-fold higher: 42 nM for the first, 16 nM for the second.

Going from N#Cc1ccc(Cn2ccc(NC(=O)Cc3ccc(OCC(F)(F)F)c(C4CC4)c3)n2)nc1 [Example 406, N-[1-(5-Cyano-pyridin-2-ylmethyl)-1H-pyrazol-3-yl]-2-[3-cyclopropyl-4-(2,2,2-trifluoro-ethoxy)-phenyl]-acetamide] to CC1(COc2ccc(CC(=O)Nc3ccn(Cc4ccc(F)c(C#N)c4)n3)cc2)COC1 [Example 280, N-[1-(3-Cyano-4-fluoro-benzyl)-1H-pyrazol-3-yl]-2-[4-(3-methyl-oxetan-3-ylmethoxy)-phenyl]-acetamide], the IC50 rises from 15 nM to 138 nM (9.2-fold).

First: Cc1nc(Cn2ccc(NC(=O)Cc3ccc(C(C)C)cc3)n2)ccc1C#N [Example 132, N-[1-(5-Cyano-6-methyl-pyridin-2-ylmethyl)-1H-pyrazol-3-yl]-2-(4-isopropyl-phenyl)-acetamide]
Second: CC(C)c1ccc(CC(=O)Nc2ccn(Cc3ccc(F)c(C#N)c3)n2)cc1 [Example 282, N-[1-(3-Cyano-4-fluoro-benzyl)-1H-pyrazol-3-yl]-2-(4-isopropyl-phenyl)-acetamide]
The IC50 of the first is 4.2-fold higher: 51 nM for the first, 12 nM for the second.

First: Cc1cn(C)c2ncc(CC(=O)Nc3ccn(Cc4ccc(F)c(C#N)c4)n3)cc12 [Example 321, N-[1-(3-Cyano-4-fluoro-benzyl)-1H-pyrazol-3-yl]-2-(1,3-dimethyl-1H-pyrrolo[2,3-b]pyridin-5-yl)-acetamide]
Second: N#Cc1cc(Cn2ccc(NC(=O)Cc3ccc(S(F)(F)(F)(F)F)cc3)n2)ccc1F [Example 334, N-(1-(3-cyano-4-fluorobenzyl)-1H-pyrazol-3-yl)-2-(4-(pentafluoro-λ^6-sulfanyl)phenyl)acetamide]
The IC50 of the first is 4.3-fold higher: 91 nM for the first, 21 nM for the second. The second is the more potent here.

COc1ccc(Cn2ccc(NC(=O)Cc3ccc(N(C)CC4CC4)nc3)n2)cc1 [Example 188, 2-[6-(Cyclopropylmethyl-methyl-amino)-pyridin-3-yl]-N-[1-(4-methoxy-benzyl)-1H-pyrazol-3-yl]-acetamide] and N#Cc1ccc(Cn2ccc(NC(=O)Cc3ccc(C4(F)COC4)cc3)n2)cc1F [Example 253, N-[1-(4-Cyano-3-fluoro-benzyl)-1H-pyrazol-3-yl]-2-[4-(3-fluoro-oxetan-3-yl)-phenyl]-acetamide] are within 1.5-fold of each other in IC50: 60 nM for the first, 57 nM for the second.

Compound CN1C(=O)COc2cc(CC(=O)Nc3ccn(Cc4ccc(F)c(F)c4)n3)ccc21 [Example 209, N-[1-(3,4-Difluoro-benzyl)-1H-pyrazol-3-yl]-2-(4-methyl-3-oxo-3,4-dihydro-2H-benzo[1,4]oxazin-7-yl)-acetamide] has an IC50 of 53 nM.
